Results: ChEMBL document CHEMBL3885881, “DrugMatrix”

Species on record: Rattus norvegicus
Experiment: DrugMatrix - Regimen: Daily Repeat
Assay type: toxicity, organism-based, Sprague-Dawley
Design: regimen Daily Repeat, gender Male, age 6-8 weeks
Conditions: in vivo, po, 16 mg/kg, route oral GAVAGE, dose level Low, vehicle .5 % CMC; for ABSOLUTE BASOPHIL / ABSOLUTE EOSINOPHIL / ABSOLUTE LYMPHOCYTE / ABSOLUTE MONOCYTE / ABSOLUTE SEGMENTED NEUTROPHIL / BASOPHIL / EOSINOPHIL / ERYTHROCYTE COUNT / HEMATOCRIT / HEMOGLOBIN / LEUKOCYTE COUNT / LYMPHOCYTE / MEAN CORPUSCULAR HEMOGLOBIN / MEAN CORPUSCULAR HEMOGLOBIN CONCENTRATION / MEAN CORPUSCULAR VOLUME / MONOCYTE / NEUTROPHIL / NUCLEATED RED BLOOD CELLS / PLATELET COUNT: tissue Blood; for ALANINE AMINOTRANSFERASE / ALBUMIN / ASPARTATE AMINOTRANSFERASE / BLOOD UREA NITROGEN / CARBON DIOXIDE / CHLORIDE / CREATINE PHOSPHOKINASE / CREATININE / GLUCOSE / LACTATE DEHYDROGENASE / LIPASE / PHOSPHORUS / POTASSIUM / SODIUM / TOTAL BILIRUBIN / TOTAL PROTEIN: tissue Plasma

In the case of `CC1=C(C(=O)O)N2C(=O)[C@@H](NC(=O)[C@H](N)c3ccccc3)[C@H]2SC1` [CEPHALEXIN ANHYDROUS], the “ABSOLUTE BASOPHIL” value (72 h, time 3 day) is reported as 0 CELLS/uL, the “ABSOLUTE EOSINOPHIL” value (72 h, time 3 day) is reported as 0 CELLS/uL and the “ABSOLUTE LYMPHOCYTE” value (72 h, time 3 day) is reported as 17436 CELLS/uL. The “ABSOLUTE MONOCYTE” value (72 h, time 3 day) was 124 CELLS/uL, the “ABSOLUTE SEGMENTED NEUTROPHIL” value (72 h, time 3 day) was 706.67 CELLS/uL and the BASOPHIL (72 h, time 3 day) was 0%. For the same compound, the EOSINOPHIL (72 h, time 3 day) was 0%, the “ERYTHROCYTE COUNT” value (72 h, time 3 day) was 5.81 x10E6/uL and the HEMATOCRIT (72 h, time 3 day) was 35.97%. For the same compound, the HEMOGLOBIN (72 h, time 3 day) was 13.93 G/DL, the “LEUKOCYTE COUNT” value (72 h, time 3 day) was 18.27 x10E3/uL and the LYMPHOCYTE (72 h, time 3 day) was 95.33%. The “MEAN CORPUSCULAR HEMOGLOBIN” value (72 h, time 3 day) was 24.03 pg, the “MEAN CORPUSCULAR HEMOGLOBIN CONCENTRATION” value (72 h, time 3 day) was 38.8 G/DL and the “MEAN CORPUSCULAR VOLUME” value (72 h, time 3 day) was 61.97 fL. The MONOCYTE (72 h, time 3 day) was 0.67%, the NEUTROPHIL (72 h, time 3 day) was 4% and the “NUCLEATED RED BLOOD CELLS” value (72 h, time 3 day) was 0 /100WBC. The “PLATELET COUNT” value (72 h, time 3 day) was 1279 x10E3/uL, the “ALANINE AMINOTRANSFERASE” value (72 h, time 3 day) was 50.33 u/L and the ALBUMIN (72 h, time 3 day) was 4.13 G/DL. The “ASPARTATE AMINOTRANSFERASE” value (72 h, time 3 day) was 86.67 u/L, the “BLOOD UREA NITROGEN” value (72 h, time 3 day) was 14.33 mg/dL and the “CARBON DIOXIDE” value (72 h, time 3 day) was 30 mmol/L. The CHLORIDE (72 h, time 3 day) was 101 MEQ/L, the “CREATINE PHOSPHOKINASE” value (72 h, time 3 day) was 208 u/L and the CREATININE (72 h, time 3 day) was 0.23 mg/dL. For the same compound, the GLUCOSE (72 h, time 3 day) was 163.33 mg/dL, the “LACTATE DEHYDROGENASE” value (72 h, time 3 day) was 208.33 u/L and the LIPASE (72 h, time 3 day) was 9 u/L. The PHOSPHORUS (72 h, time 3 day) was 13.27 mg/dL, the POTASSIUM (72 h, time 3 day) was 7.33 MEQ/L and the SODIUM (72 h, time 3 day) was 146.17 MEQ/L. The “TOTAL BILIRUBIN” value (72 h, time 3 day) was 0.17 mg/dL, the “TOTAL PROTEIN” value (72 h, time 3 day) was 5.9 G/DL and the “ABSOLUTE BASOPHIL” value (120 h, time 5 day) was 0 CELLS/uL. For the same compound, the “ABSOLUTE EOSINOPHIL” value (120 h, time 5 day) was 0 CELLS/uL, the “ABSOLUTE LYMPHOCYTE” value (120 h, time 5 day) was 13406.33 CELLS/uL and the “ABSOLUTE MONOCYTE” value (120 h, time 5 day) was 44 CELLS/uL. The “ABSOLUTE SEGMENTED NEUTROPHIL” value (120 h, time 5 day) was 716.33 CELLS/uL, the BASOPHIL (120 h, time 5 day) was 0% and the EOSINOPHIL (120 h, time 5 day) was 0%. For the same compound, the “ERYTHROCYTE COUNT” value (120 h, time 5 day) was 5.62 x10E6/uL, the HEMATOCRIT (120 h, time 5 day) was 33.87% and the HEMOGLOBIN (120 h, time 5 day) was 13.33 G/DL. The “LEUKOCYTE COUNT” value (120 h, time 5 day) was 14.17 x10E3/uL, the LYMPHOCYTE (120 h, time 5 day) was 94.67% and the “MEAN CORPUSCULAR HEMOGLOBIN” value (120 h, time 5 day) was 23.63 pg. For the same compound, the “MEAN CORPUSCULAR HEMOGLOBIN CONCENTRATION” value (120 h, time 5 day) was 39.33 G/DL, the “MEAN CORPUSCULAR VOLUME” value (120 h, time 5 day) was 60.17 fL and the MONOCYTE (120 h, time 5 day) was 0.33%. The NEUTROPHIL (120 h, time 5 day) was 5%, the “NUCLEATED RED BLOOD CELLS” value (120 h, time 5 day) was 0 /100WBC and the “PLATELET COUNT” value (120 h, time 5 day) was 900 x10E3/uL. For the same compound, the “ALANINE AMINOTRANSFERASE” value (120 h, time 5 day) was 49 u/L, the ALBUMIN (120 h, time 5 day) was 4.2 G/DL and the “ASPARTATE AMINOTRANSFERASE” value (120 h, time 5 day) was 98 u/L. The “BLOOD UREA NITROGEN” value (120 h, time 5 day) was 14.67 mg/dL, the “CARBON DIOXIDE” value (120 h, time 5 day) was 24 mmol/L and the CHLORIDE (120 h, time 5 day) was 103.33 MEQ/L. The “CREATINE PHOSPHOKINASE” value (120 h, time 5 day) was 652.67 u/L, the CREATININE (120 h, time 5 day) was 0.25 mg/dL and the GLUCOSE (120 h, time 5 day) was 200.67 mg/dL. For the same compound, the “LACTATE DEHYDROGENASE” value (120 h, time 5 day) was 425.67 u/L, the LIPASE (120 h, time 5 day) was 9 u/L and the PHOSPHORUS (120 h, time 5 day) was 13.2 mg/dL. For the same compound, the POTASSIUM (120 h, time 5 day) was 6.1 MEQ/L, the SODIUM (120 h, time 5 day) was 146.5 MEQ/L and the “TOTAL BILIRUBIN” value (120 h, time 5 day) was 0.17 mg/dL. The “TOTAL PROTEIN” value (120 h, time 5 day) was 6.13 G/DL.
